Data as given in US5235055A, “Antipsychotic quinoline derivatives of benzodioxanmethylamine” (American Home Products Corporation, priority 1992, dated 1993).
Where two headings read alike, the source gives them in different places.

Key:
dopamine D2 receptor = biological target: T1, dopamine D2 receptor (Rattus norvegicus, UniProt P61169); assay: Affinity for dopamine D2 receptor (3H-quinpirole, rat striatal homogenate); assay type: binding; details: rat striatal brain tissue
T1 construct: homogenized rat striatal brain tissue; from tissue; host or cells: rat striatum (homogenized brain tissue)
T1 sequence (P61169 whole entry): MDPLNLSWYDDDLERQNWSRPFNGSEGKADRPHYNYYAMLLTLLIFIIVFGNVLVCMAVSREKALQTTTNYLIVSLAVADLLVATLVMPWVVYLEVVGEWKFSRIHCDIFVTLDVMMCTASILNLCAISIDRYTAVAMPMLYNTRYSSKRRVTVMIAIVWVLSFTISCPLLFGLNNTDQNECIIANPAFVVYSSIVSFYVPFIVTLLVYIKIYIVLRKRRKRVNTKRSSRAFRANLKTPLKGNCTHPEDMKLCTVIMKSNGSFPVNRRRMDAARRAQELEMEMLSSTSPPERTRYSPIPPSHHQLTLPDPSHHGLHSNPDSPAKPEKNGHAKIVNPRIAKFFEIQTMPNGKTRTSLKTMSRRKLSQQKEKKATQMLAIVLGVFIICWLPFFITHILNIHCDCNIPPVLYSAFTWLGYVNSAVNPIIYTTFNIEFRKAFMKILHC
Procedure: Affinity for the dopamine D2 receptor was established by a modification of the standard experimental test procedure of Seemen and Schaus, European Journal of Pharmacology 203: 105-109, 1991, wherein homogenized rat striatal brain tissue is incubated with ^3 H-quinpirole and various concentrations of test compound, filtered and washed and counted in a Betaplate scintillation counter.

5-HT1A receptor = details: Fozard et al. 1987, cited from earlier work
synthesis of dopamine = assay: Effect on dopamine synthesis: inhibition of dopa accumulation in GBL/NSD-1015-treated rats (Walters and Roth); assay type: in vivo, rats (male, Sprague-Dawley); details: Rattus norvegicus, sc, read-out: Dopa Accumulation (% inhib. @ 10 mg/kg, sc)
Procedure: The effect of the compounds of the invention on the synthesis of dopamine was established by the method of Walters and Roth, Naunyn-Schmiedeberg's Arch. Pharmacol. 296:5-14, 1976, in which rats (male, Sprague-Dawley, Charles River, 200-350 g) were administered vehicle or test drug ten minutes prior to the administration of gamma butyrolactone (GBL; 750 mg/kg, ip to inhibit dopaminergic impulse flow) and 20 minutes prior to NSD-1015 (100 mg/kg, ip to prevent the conversion of dopa to dopamine). Thirty minutes after NSD-1015 all rats were decapitated and the nucleus accumbens and the striatum were removed for analysis. Following perchloric acid extraction of the tissue, the extracts were placed over alumina columns to collect and concentrate dopa and other catechols. This eluate was then subjected to HPLC analysis using electrochemical detection to quantify the levels of dopa present. Dopamine autoreceptor agonists, under the conditions used above, inhibit dopa accumulation.

mouse locomotor activity = assay: Reduction of mouse locomotor activity (hypolocomotion; Martin and Bendensky); assay type: in vivo, mice (male, CF-1); details: ip, horizontal activity counts 10 to 20 minutes after dosing
Procedure: The antipsychotic activity of the compounds of the invention was further established by a determination of the compounds' ability to reduce mouse locomotor activity according to the method of Martin and Bendensky, J. Pharmacol. Exp. Therap. 229:706-711, 1984, in which mice (male, CF-1, Charles River, 20-30 g) were injected with vehicle or various doses of each drug and locomotor activity was measured for 30 minutes using automated infrared activity monitors (Omnitech--8×8 inch open field) located in a darkened room. ED50 's were calculated from the horizontal activity counts collected from 10 to 20 minutes after dosing using a nonlinear regression analysis with inverse prediction.

inhibition at 0.1 µM (dopamine D2 receptor) | Structure (SMILES) | inhibition at 10 mg/kg (synthesis of dopamine; limbic (L) brain tissue) | ED50 (mouse locomotor activity) | also measured
55% | COc1ccc2c(c1)OC(CNCCCOc1ccc3cccnc3c1)CO2 (centres unmarked) [Example 4, N-[3-(Quinolin-7-yloxy)propyl]-2,3-dihydro-7-methoxy-1,4-benzodioxin-2-methanamine] |  |  | 
 | O=C1CC2(CCCC2)CC(=O)N1CCCCNCC1COc2ccccc2O1 (centres unmarked) [MDL 72832, 8-[4-(1,4-benzodioxan-2-ylmethylamino)butyl]-8-azaspiro[4.5]decane-7,9-dione] |  |  | ligand for 5-HT1A receptors (in words) (5-HT1A receptor): selective and stereospecific
 | O=C1CC2(CCCC2)CC(=O)N1CCCCNCC1COc2ccccc2O1 (single isomer, unassigned; (-)) [(-)-MDL 72832] |  |  | binding at the 5-HT1A receptor site relative to the dextrorotary isomer (times as much) (5-HT1A receptor; (-)-isomer vs dextrorotary isomer): 32 times
 | c1ccc2c(c1)OCC(CNCCCOc1ccc3cccnc3c1)O2 (centres unmarked) [Example 1, N-[3-(Quinolin-7-yloxy)propyl]-2,3-dihydro-1,4-benzodioxin-2-methanamine] | 29% |  | inhibition at 10 mg/kg (synthesis of dopamine; striatal (S) brain tissue): 44%
 | c1cnc2cc(OCCCNCC3COc4cc5c(cc4O3)OCO5)ccc2c1 (centres unmarked) [Example 2, N-[3-(Quinolin-7-yloxy)propyl]-2,3-dihydro-6,7-methylenedioxy-1,4-benzodioxin-2-methanamine] | 60.4% | 3 mg/kg | IC50 (dopamine D2 receptor): 63 nM
25% | c1cc(OCCCNCC2COc3cc4c(cc3O2)OCO4)c2cccnc2c1 (centres unmarked) [Example 3, N-[3-(Quinolin-5-yloxy)propyl]-2,3-dihydro-6,7-methylenedioxy-1,4-benzodioxin-2-methanamine] | 42.6% | 12.6 mg/kg | 
